According to patent US9452986B2, “6-heteroaryloxy- or 6-aryloxy-quinoline-2-carboxamides and method of use” (AbbVie Inc., priority 2014, dated 2016):
Read-outs that look alike come from different tables or passages of the source.

Molecular target: recombinant human Nav1.7 (Homo sapiens (Human), UniProt Q15858)
Experiment: FRET-based membrane potential assay, recombinant human sodium channel Nav1.7
Format: cell-based
Procedure: FRET-Based Membrane Potential Assays.
Recombinant, Human Sodium Channel, Nav1.7.
On the day of the assay, medium was removed by aspiration, and cells were washed with assay buffer [HBSS (Invitrogen, Carlsbad, Calif.) containing 20 mM HEPES (Invitrogen, Carlsbad, Calif.)]. […] Cells were incubated for 40 minutes at room temperature in the dark. […] The cells were incubated for 90 minutes at room temperature in the dark. Fluorescence readings were made using a FLIPR®^TETRA (Molecular Devices, Sunnyvale Calif.) equipped with voltage-sensor probe optics. At the start of each experiment the optimal (EC80) concentration of depolarizing agent (veratridine) was determined by testing a dilution curve of assay buffer containing veratridine (Sigma-Aldrich, St. Louis, Mo.) and 1 mg/mL scorpion venom (SVqq, from Leiurus quinquestriatus; Sigma-Aldrich, St. Louis, Mo.). […] Test compounds in the daughter plate were diluted to (˜3×) solutions in assay buffer immediately before assaying. Using the FLIPR®^TETRA, 20 μL of the (3×) compound solutions were first added to the cells, then 20 μL of depolarizing solution (3×EC80 veratridine+SVqq) were added 3 minutes later to activate the channel. […] IC50 values were calculated from curve fits of the ratio data using a four-parameter logistic Hill equation (Accelrys Assay Explorer 3.3 Client, Accelrys, San Diego, Calif.) with percent inhibition plotted against compound concentration.

[1] = HEK293 cells stably expressing recombinant human Nav1.7, veratridine + scorpion venom depolarization, read-out: FRET-Membrane Potential Nav1.7 IC50
[2] = read-out: FRET-Membrane Potential Nav1.7 IC50

recombinant human Nav1.7, sequence (Q15858 whole entry): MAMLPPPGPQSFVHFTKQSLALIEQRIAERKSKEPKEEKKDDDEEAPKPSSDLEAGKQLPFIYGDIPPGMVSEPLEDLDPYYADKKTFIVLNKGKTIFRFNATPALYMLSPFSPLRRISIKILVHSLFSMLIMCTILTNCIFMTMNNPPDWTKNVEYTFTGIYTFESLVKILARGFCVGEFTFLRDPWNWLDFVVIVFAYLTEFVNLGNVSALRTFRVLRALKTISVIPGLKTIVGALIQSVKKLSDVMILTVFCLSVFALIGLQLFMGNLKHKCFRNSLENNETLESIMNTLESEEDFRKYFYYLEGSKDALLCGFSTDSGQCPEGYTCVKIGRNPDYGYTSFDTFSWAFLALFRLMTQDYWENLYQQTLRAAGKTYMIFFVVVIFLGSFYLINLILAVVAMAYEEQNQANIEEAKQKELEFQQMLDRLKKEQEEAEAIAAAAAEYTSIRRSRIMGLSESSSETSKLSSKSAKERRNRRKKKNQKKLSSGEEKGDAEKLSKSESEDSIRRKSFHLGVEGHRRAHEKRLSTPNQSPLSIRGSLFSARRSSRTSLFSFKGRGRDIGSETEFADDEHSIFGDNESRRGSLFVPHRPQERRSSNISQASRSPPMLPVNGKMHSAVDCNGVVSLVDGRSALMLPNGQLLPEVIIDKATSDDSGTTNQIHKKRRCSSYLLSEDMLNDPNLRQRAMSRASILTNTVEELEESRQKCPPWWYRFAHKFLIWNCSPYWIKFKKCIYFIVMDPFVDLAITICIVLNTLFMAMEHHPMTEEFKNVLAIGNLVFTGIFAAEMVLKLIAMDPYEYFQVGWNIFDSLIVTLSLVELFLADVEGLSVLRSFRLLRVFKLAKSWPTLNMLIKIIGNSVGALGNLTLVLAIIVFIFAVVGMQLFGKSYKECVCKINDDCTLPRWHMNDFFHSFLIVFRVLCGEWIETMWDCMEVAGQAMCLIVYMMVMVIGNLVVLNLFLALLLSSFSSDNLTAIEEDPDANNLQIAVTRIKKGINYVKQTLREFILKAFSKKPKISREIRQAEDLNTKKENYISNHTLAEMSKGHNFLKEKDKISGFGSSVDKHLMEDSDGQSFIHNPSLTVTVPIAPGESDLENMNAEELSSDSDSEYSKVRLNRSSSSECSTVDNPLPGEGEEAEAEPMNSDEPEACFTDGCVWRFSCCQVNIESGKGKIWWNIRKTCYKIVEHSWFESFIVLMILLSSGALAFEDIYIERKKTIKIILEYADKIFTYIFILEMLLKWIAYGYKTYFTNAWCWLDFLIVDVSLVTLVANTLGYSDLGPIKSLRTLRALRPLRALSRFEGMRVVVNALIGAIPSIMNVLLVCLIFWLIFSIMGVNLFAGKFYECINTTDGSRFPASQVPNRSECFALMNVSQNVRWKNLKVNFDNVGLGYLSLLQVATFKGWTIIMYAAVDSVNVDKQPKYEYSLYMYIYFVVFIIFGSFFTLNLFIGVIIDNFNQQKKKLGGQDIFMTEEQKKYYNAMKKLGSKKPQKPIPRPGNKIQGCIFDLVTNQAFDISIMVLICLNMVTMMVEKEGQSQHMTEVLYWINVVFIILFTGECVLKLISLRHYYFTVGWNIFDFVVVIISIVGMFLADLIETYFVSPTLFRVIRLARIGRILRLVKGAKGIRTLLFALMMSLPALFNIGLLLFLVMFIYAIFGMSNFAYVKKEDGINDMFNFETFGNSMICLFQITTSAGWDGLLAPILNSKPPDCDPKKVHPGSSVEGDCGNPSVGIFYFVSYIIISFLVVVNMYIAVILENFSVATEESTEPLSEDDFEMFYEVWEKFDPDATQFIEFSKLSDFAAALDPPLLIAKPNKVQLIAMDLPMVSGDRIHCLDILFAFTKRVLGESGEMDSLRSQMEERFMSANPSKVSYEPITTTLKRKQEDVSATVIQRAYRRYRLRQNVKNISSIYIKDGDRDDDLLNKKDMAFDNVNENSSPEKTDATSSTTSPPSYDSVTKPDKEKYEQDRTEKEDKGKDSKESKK

SMILES | IC50 [1] | also measured
O=C(c1ccc2cc(Oc3ccc(C(F)(F)F)cn3)ccc2n1)N1CCC(F)(F)CC1 [Example 330, (4,4-difluoropiperidin-1-yl)(6-{[5-(trifluoromethyl)pyridin-2-yl]oxy}quinolin-2-yl)methanone] | 2950 nM | –
O=C(NCCC(=O)N1CCCCC1)c1ccc2cc(Oc3ccc(C(F)(F)F)cn3)ccc2n1 [Example 449, N-[3-oxo-3-(piperidin-1-yl)propyl]-6-{[5-(trifluoromethyl)pyridin-2-yl]oxy}quinoline-2-carboxamide] | – | IC50 [2]: 789 nM
N#Cc1ccc(Oc2ccc3nc(C(=O)NCCN4CCCCC4)ccc3c2)cc1 [Example 82, 6-(4-cyanophenoxy)-N-[2-(piperidin-1-yl)ethyl]quinoline-2-carboxamide] | – | IC50 [2]: 222 nM
CS(=O)(=O)CCCCNC(=O)c1ccc2cc(Oc3ccc(C(F)(F)F)cn3)ccc2n1 [Example 612, N-[4-(methylsulfonyl)butyl]-6-{[5-(trifluoromethyl)pyridin-2-yl]oxy}quinoline-2-carboxamide] | – | IC50 [2]: 2930 nM
O=C(c1ccc2cc(Oc3cnc(C(F)(F)F)cn3)ccc2n1)N1CCNCC1 [Example 245, piperazin-1-yl(6-{[5-(trifluoromethyl)pyrazin-2-yl]oxy}quinolin-2-yl)methanone] | – | IC50 [2]: 4630 nM
CC(=O)C1CN(C(=O)c2ccc3cc(Oc4ccc(C(F)(F)F)cn4)ccc3n2)C1 [Example 506, 1-{1-[(6-{[5-(trifluoromethyl)pyridin-2-yl]oxy}quinolin-2-yl)carbonyl]azetidin-3-yl}ethanone] | 781 nM | –
CC(=O)NCC(C)CNC(=O)c1ccc2cc(Oc3ccc(C(F)(F)F)cn3)ccc2n1 (stereo not drawn) [Example 610, N-(3-acetamido-2-methylpropyl)-6-{[5-(trifluoromethyl)pyridin-2-yl]oxy}quinoline-2-carboxamide] | 2760 nM | –
O=C(c1ccc2cc(Oc3ccc(C(F)(F)F)cn3)ccc2n1)N1CCNC[C@@H]1CO [Example 243, [(2R)-2-(hydroxymethyl)piperazin-1-yl](6-{[5-(trifluoromethyl)pyridin-2-yl]oxy}quinolin-2-yl)methanone] | > 20000 nM | –
CS(=O)(=O)N1CCN(C(=O)c2ccc3cc(Oc4ccc(C(F)(F)F)cn4)ccc3n2)CC1 [Example 176, [4-(methylsulfonyl)piperazin-1-yl](6-{[5-(trifluoromethyl)pyridin-2-yl]oxy}quinolin-2-yl)methanone] | – | IC50 [2]: 8770 nM
O=C(NCCN1CCSCC1)c1ccc2cc(Oc3ccc(C(F)(F)F)cn3)ccc2n1 [Example 365, N-[2-(thiomorpholin-4-yl)ethyl]-6-{[5-(trifluoromethyl)pyridin-2-yl]oxy}quinoline-2-carboxamide] | 356 nM | –
O=C(c1ccc2cc(Oc3ccc(C(F)(F)F)cn3)ccc2n1)N1CC2(CNC2)C1 [Example 157, 2,6-diazaspiro[3.3]hept-2-yl(6-{[5-(trifluoromethyl)pyridin-2-yl]oxy}quinolin-2-yl)methanone] | > 20000 nM | –
O=C(c1ccc2cc(Oc3ccc(C(F)(F)F)nc3)ccc2n1)N1C[C@@H](O)[C@@H](O)C1 [Example 546, [cis-3,4-dihydroxypyrrolidin-1-yl](6-{[6-(trifluoromethyl)pyridin-3-yl]oxy}quinolin-2-yl)methanone] | – | IC50 (FRET-Membrane Potential Nav1.7 IC50): 10100 nM
N#Cc1ccc(Oc2ccc3nc(C(=O)N[C@@H]4CCOC4)ccc3c2)cc1 [Example 117, 6-(4-cyanophenoxy)-N-[(3R)-tetrahydrofuran-3-yl]quinoline-2-carboxamide] | – | IC50 [2]: 2230 nM
O=C(NC[C@@H]1CCCN1)c1ccc2cc(Oc3ccc(C(F)(F)F)cn3)ccc2n1 [Example 363, N-[(2S)-pyrrolidin-2-ylmethyl]-6-{[5-(trifluoromethyl)pyridin-2-yl]oxy}quinoline-2-carboxamide] | 1190 nM | –
O=C(NCCC(=O)N1CCCC1)c1ccc2cc(Oc3ccc(C(F)F)cn3)ccc2n1 [Example 460, 6-{[5-(difluoromethyl)pyridin-2-yl]oxy}-N-[3-oxo-3-(pyrrolidin-1-yl)propyl]quinoline-2-carboxamide] | 2400 nM | –
N#Cc1ccc(Oc2ccc3nc(C(=O)NCCCN4CCOCC4)ccc3c2)cc1 [Example 87, 6-(4-cyanophenoxy)-N-[3-(morpholin-4-yl)propyl]quinoline-2-carboxamide] | 1230 nM | –
O=C(c1ccc2cc(Oc3ccc(C(F)(F)F)cn3)ccc2n1)N1CCN2C[C@@H](F)C[C@H]2C1 [Example 359, [(7S,8aS)-7-fluorohexahydropyrrolo[1,2-a]pyrazin-2(1H)-yl](6-{[5-(trifluoromethyl)pyridin-2-yl]oxy}quinolin-2-yl)methanone] | – | IC50 [2]: 4710 nM
O=C(NCC1CCN1)c1ccc2cc(Oc3ccc(C(F)(F)F)cn3)ccc2n1 (stereo not drawn) [Example 424, N-(azetidin-2-ylmethyl)-6-{[5-(trifluoromethyl)pyridin-2-yl]oxy}quinoline-2-carboxamide] | – | IC50 [2]: 1310 nM
O=C(NCC1(O)CCC1)c1ccc2cc(Oc3ccc(C(F)(F)F)cn3)ccc2n1 [Example 336, N-[(1-hydroxycyclobutyl)methyl]-6-{[5-(trifluoromethyl)pyridin-2-yl]oxy}quinoline-2-carboxamide] | 439 nM | –
C[C@@H]1CN2C[C@@H](F)C[C@@H]2CN1C(=O)c1ccc2cc(Oc3ccc(C(F)(F)F)cn3)ccc2n1 [Example 357, [(3R,7S,8aR)-7-fluoro-3-methylhexahydropyrrolo[1,2-a]pyrazin-2(1H)-yl](6-{[5-(trifluoromethyl)pyridin-2-yl]oxy}quinolin-2-yl)methanone] | 2720 nM | –
NC(=O)[C@H]1CCCN(C(=O)c2ccc3cc(Oc4ccc(C(F)(F)F)cn4)ccc3n2)C1 [Example 325, (3S)-1-[(6-{[5-(trifluoromethyl)pyridin-2-yl]oxy}quinolin-2-yl)carbonyl]piperidine-3-carboxamide] | 8580 nM | –
CC1(O)CCN(C(=O)c2ccc3cc(Oc4ccc(C(F)(F)F)cn4)ccc3n2)CC1 [Example 255, (4-hydroxy-4-methylpiperidin-1-yl)(6-{[5-(trifluoromethyl)pyridin-2-yl]oxy}quinolin-2-yl)methanone] | 12100 nM | –
CC(C)[C@H]1CN(C(=O)c2ccc3cc(Oc4ccc(C#N)cc4)ccc3n2)CCN1 [Example 142, 4-[(2-{[(3S)-3-isopropylpiperazin-1-yl]carbonyl}quinolin-6-yl)oxy]benzonitrile] | 766 nM | –
CCN(CC)C(=O)CNC(=O)c1ccc2cc(Oc3ccc(C(F)F)cn3)ccc2n1 [Example 461, N-[2-(diethylamino)-2-oxoethyl]-6-{[5-(difluoromethyl)pyridin-2-yl]oxy}quinoline-2-carboxamide] | 354 nM | –
O=C1CCC(NC(=O)c2ccc3cc(Oc4ccc(C(F)(F)F)cn4)ccc3n2)CN1 (stereo not drawn) [Example 416, N-(6-oxopiperidin-3-yl)-6-{[5-(trifluoromethyl)pyridin-2-yl]oxy}quinoline-2-carboxamide] | 700 nM | –
CC1(C)C[C@@H](NC(=O)c2ccc3cc(Oc4ccc(C#N)cc4)ccc3n2)c2cc(F)ccc2O1 [Example 141, 6-(4-cyanophenoxy)-N-[(4R)-6-fluoro-2,2-dimethyl-3,4-dihydro-2H-chromen-4-yl]quinoline-2-carboxamide] | > 20000 nM | –
O=C(NC1CCNCC1)c1ccc2cc(Oc3ccc(C(F)(F)F)cn3)ccc2n1 [Example 264, N-(piperidin-4-yl)-6-{[5-(trifluoromethyl)pyridin-2-yl]oxy}quinoline-2-carboxamide] | 3210 nM | –
